Consider 2 molecules from patent publication US6649647B1, “Trioxane derivatives” (priority 1998, dated 2003).

Holding throughout (type): cell-based
For one experiment, the system named is DNA within the cell. In words: DNA comet assay. To be noted: cells after 3 or 6 day treatment. The text has this: In this technique, cells are embedded in agarose gel on a frosted slide after 3 or 6 day treatment, the cells are then lysed and submitted to electrophoresis. The DNA was stained after electrophoresis by ethidium bromide and images of the DNA “comets” were obtained by using an image analysis software package.

Experiment [1] has as its system Rat 6 subclone of the immortalized F2408 embryo cell line (R6). The experiment is described as follows: Screening for cytotoxicity, cell count by Coulter Counter, R6 cells. As to conditions: for LD50 (Day 3) R6: day 3 after addition; for LD50 (Day 6) R6: day 6 after addition. The protocol:
(§1) Compounds of the invention were screened against Rat 6 subclone of the immortalized F2408 embryo cell line, and Rat 6 (R6T24) cells transfected and transformed by a c-H-ras oncogene. The screening involved placing the R6 and R6T24 cell lines plated at 10^3 cells per well into a 12-well microtiter culture plate for 24 hours. The compounds were added at final concentrations from 0.1-100 μM, and cells were trypsized and counted by Coulter Counter at day 3 and day 6 after the addition. Untreated cells were assigned a survival value of 100%.

Experiment [2] concerns Rat 6 (R6T24) cells transfected and transformed by a c-H-ras oncogene. In words: Screening for cytotoxicity, cell count by Coulter Counter, R6T24 cells. To be noted: R6T24 cell line; for LD50 (Day 3) R6T24: day 3 after addition; for LD50 (Day 6) R6T24: day 6 after addition. The protocol:
as §1

The structures appear in SMILES notation.

Turning to `COc1ccc(C2OC3OC4(C)CCC5C(C)CCC(C2C)C35OO4)c(OC)c1` (stereo not drawn) [Example 4, 10-(2′,4′-dimethoxyphenyl)dihydroartemisinin], the “DNA damage in the DNA comet assay” value in the experiment on DNA within the cell was “strong DNA damage”. In experiment [1] (Table V), the “LD50 (Day 3) R6” value turned out to be 1.37 µM and the “LD50 (Day 6) R6” value turned out to be 0.29 µM. Moreover, in experiment [1] (Table VA), the “LD50 (Day 3) R6” value came out at 1.37 µM and the “LD50 (Day 6) R6” value came out at 0.29 µM. In addition, in experiment [2] (Table V), the “LD50 (Day 3) R6T24” value was 1.09 µM and the “LD50 (Day 6) R6T24” value is 0.13 µM. Further, in experiment [2] (Table VA), the “LD50 (Day 3) R6T24” value was 1.09 µM and the “LD50 (Day 6) R6T24” value was 0.13 µM.

As to `CC1CCC2C(CN3CCc4ccccc43)C(=O)OC3OC4(C)CCC1C32OO4` (stereo not drawn) [Example 22, 16-(N-1′-indolinyl)artemisinin], the “DNA damage in the DNA comet assay” value in the experiment with DNA within the cell was “strong DNA damage”. For the same molecule, in experiment [1] (Table V), the “LD50 (Day 3) R6” value stood at 24.77 µM and the “LD50 (Day 6) R6” value was determined as 29.24 µM. Further, in experiment [1] (Table VA), the “LD50 (Day 3) R6” value amounted to 25 µM and the “LD50 (Day 6) R6” value worked out at 29 µM. In experiment [2] (Table V), the “LD50 (Day 3) R6T24” value was determined as 11.38 µM and the “LD50 (Day 6) R6T24” value was found to be 7.45 µM. In experiment [2] (Table VA), the “LD50 (Day 3) R6T24” value was determined as 12 µM and the “LD50 (Day 6) R6T24” value turned out to be 7.5 µM.
